From ChEMBL document CHEMBL1201861, “Genomics of Drug Sensitity in Cancer screening data, Wellcome Trust Sanger Institute”

Key:
Test in all cases: cells
Assay type in all cases: functional, cell-based
Conditions in all cases: Homo sapiens
COLO-800 = system: COLO-800;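 further: growth inhibition of COLO-800 cells, read out with a cell viability assay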
Description: SANGER: Inhibition of human COLO-800 cell growth in a cell viability assay.

COR-L88 = system: COR-L88;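 further: growth inhibition of COR-L88 cells, read out with a cell viability assay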
Description: SANGER: Inhibition of human COR-L88 cell growth in a cell viability assay.

D-263MG = system: D-263MG
Description: SANGER: Inhibition of human D-263MG cell growth in a cell viability assay.

DMS-79 = system: DMS-79;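 further: growth inhibition measured with a cell viability assay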
Description: SANGER: Inhibition of human DMS-79 cell growth in a cell viability assay.

DSH1 = system: DSH1;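 further: growth inhibition of human DSH1 cells, measured with a cell viability readout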
Description: SANGER: Inhibition of human DSH1 cell growth in a cell viability assay.

EM-2 = system: EM-2;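 further: growth inhibition of EM-2 cells, read out with a cell viability assay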
Description: SANGER: Inhibition of human EM-2 cell growth in a cell viability assay.

ES8 = system: ES8;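 further: growth inhibition of human ES8 cells, read out with a cell viability assay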
Description: SANGER: Inhibition of human ES8 cell growth in a cell viability assay.

EW-3 = system: EW-3;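 further: cell viability assay read-out, IC50 reflects inhibition of growth of the EW-3 cells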
Description: SANGER: Inhibition of human EW-3 cell growth in a cell viability assay.

GAK = system: GAK;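 further: cell growth inhibition read out by a cell viability assay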
Description: SANGER: Inhibition of human GAK cell growth in a cell viability assay.

GI-ME-N = system: GI-ME-N;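 further: growth inhibition of human GI-ME-N cells, read out with a cell viability assay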
Description: SANGER: Inhibition of human GI-ME-N cell growth in a cell viability assay.

GR-ST = system: GR-ST
Description: SANGER: Inhibition of human GR-ST cell growth in a cell viability assay.

HAL-01 = system: HAL-01;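 further: growth inhibition of human HAL-01 cells, read out with a cell viability assay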
Description: SANGER: Inhibition of human HAL-01 cell growth in a cell viability assay.

HCC2218 = system: HCC2218;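 further: cell viability assay read-out, with IC50 given as the concentration that inhibits growth of the cell line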
Description: SANGER: Inhibition of human HCC2218 cell growth in a cell viability assay.

HL-60 = system: HL-60;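 further: growth inhibition of human HL-60 cells, read out with a cell viability assay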
Description: SANGER: Inhibition of human HL-60 cell growth in a cell viability assay.

HOP-62 = system: HOP-62;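 further: cell growth inhibition determined with a viability assay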
Description: SANGER: Inhibition of human HOP-62 cell growth in a cell viability assay.

IST-MEL1 = system: IST-MEL1;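 further: growth inhibition of the cell line, read out with a cell viability assay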
Description: SANGER: Inhibition of human IST-MEL1 cell growth in a cell viability assay.

J-RT3-T3-5 = system: J-RT3-T3-5;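 further: cell viability assay measuring growth inhibition of human J-RT3-T3-5 cells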
Description: SANGER: Inhibition of human J-RT3-T3-5 cell growth in a cell viability assay.

JAR = system: JAR;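 further: growth inhibition of human JAR cells determined with a cell viability assay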
Description: SANGER: Inhibition of human JAR cell growth in a cell viability assay.

K5 = system: K5
Description: SANGER: Inhibition of human K5 cell growth in a cell viability assay.

KALS-1 = system: KALS-1;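 further: growth inhibition of KALS-1 cells, determined with a cell viability assay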
Description: SANGER: Inhibition of human KALS-1 cell growth in a cell viability assay.

KINGS-1 = system: KINGS-1;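 further: cell viability assay measuring suppression of KINGS-1 cell growth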
Description: SANGER: Inhibition of human KINGS-1 cell growth in a cell viability assay.

KMOE-2 = system: KMOE-2;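 further: growth inhibition of human KMOE-2 cells, read out with a cell viability assay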
Description: SANGER: Inhibition of human KMOE-2 cell growth in a cell viability assay.

KS-1 = system: KS-1;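 further: growth inhibition of KS-1 cells, read out with a cell viability assay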
Description: SANGER: Inhibition of human KS-1 cell growth in a cell viability assay.

KU812 cell line = system: KU812 cell line;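 further: growth inhibition of KU812 cells, read out with a cell viability assay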
Description: SANGER: Inhibition of human KU812 cell growth in a cell viability assay.

KY821 = system: KY821;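 further: growth inhibition of human KY821 cells, read out by a cell viability assay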
Description: SANGER: Inhibition of human KY821 cell growth in a cell viability assay.

LB373-MEL-D = system: LB373-MEL-D;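 further: growth inhibition of the cell line, read out in a cell viability assay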
Description: SANGER: Inhibition of human LB373-MEL-D cell growth in a cell viability assay.

LB771-HNC = system: LB771-HNC;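 further: growth inhibition of LB771-HNC human cells, read out with a cell viability assay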
Description: SANGER: Inhibition of human LB771-HNC cell growth in a cell viability assay.

LNCaP-Clone-FGC = system: LNCaP-Clone-FGC
Description: SANGER: Inhibition of human LNCaP-Clone-FGC cell growth in a cell viability assay.

MHH-NB-11 = system: MHH-NB-11;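 further: growth inhibition of human MHH-NB-11 cells, read out by a cell viability assay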
Description: SANGER: Inhibition of human MHH-NB-11 cell growth in a cell viability assay.

MLMA = system: MLMA;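 further: growth inhibition of MLMA cells (human), determined through a cell viability readout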
Description: SANGER: Inhibition of human MLMA cell growth in a cell viability assay.

MOLT-16 = system: MOLT-16;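 further: growth inhibition of human MOLT-16 cells, read out with a cell viability assay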
Description: SANGER: Inhibition of human MOLT-16 cell growth in a cell viability assay.

MOLT-4 = system: MOLT-4;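 further: growth inhibition of MOLT-4 cells, determined with a cell viability readout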
Description: SANGER: Inhibition of human MOLT-4 cell growth in a cell viability assay.

MPP-89 = system: MPP-89;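 further: growth inhibition of human MPP-89 cells, read out with a cell viability assay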
Description: SANGER: Inhibition of human MPP-89 cell growth in a cell viability assay.

MS-1 = system: MS-1;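 further: growth inhibition of MS-1 cells, read out by cell viability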
Description: SANGER: Inhibition of human MS-1 cell growth in a cell viability assay.

MSTO-211H = system: MSTO-211H
Description: SANGER: Inhibition of human MSTO-211H cell growth in a cell viability assay.

NB10 = system: NB10;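 further: growth inhibition of NB10 cells, read out by a cell viability assay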
Description: SANGER: Inhibition of human NB10 cell growth in a cell viability assay.

NB13 = system: NB13;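 further: cell viability readout measuring growth inhibition of human NB13 cells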
Description: SANGER: Inhibition of human NB13 cell growth in a cell viability assay.

NCI-H1299 = system: NCI-H1299;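 further: growth inhibition of human NCI-H1299 cells, read out by a cell viability assay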
Description: SANGER: Inhibition of human NCI-H1299 cell growth in a cell viability assay.

NCI-H1304 = system: NCI-H1304;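 further: growth inhibition of the cancer cell line, measured in a cell viability assay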
Description: SANGER: Inhibition of human NCI-H1304 cell growth in a cell viability assay.

NCI-H1648 = system: NCI-H1648;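 further: cell viability assay measuring inhibition of NCI-H1648 cell growth, from the Sanger screening data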
Description: SANGER: Inhibition of human NCI-H1648 cell growth in a cell viability assay.

NCI-H1650 = system: NCI-H1650;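 further: growth inhibition of human NCI-H1650 cells measured by a cell viability assay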
Description: SANGER: Inhibition of human NCI-H1650 cell growth in a cell viability assay.

NCI-H2126 = system: NCI-H2126;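 further: growth inhibition of the cancer cell line, determined with a cell viability readout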
Description: SANGER: Inhibition of human NCI-H2126 cell growth in a cell viability assay.

NCI-H510A = system: NCI-H510A;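 further: growth inhibition of NCI-H510A cells, read out with a cell viability assay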
Description: SANGER: Inhibition of human NCI-H510A cell growth in a cell viability assay.

NCI-H747 = system: NCI-H747;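 further: growth inhibition of human NCI-H747 cells, read out by a cell viability assay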
Description: SANGER: Inhibition of human NCI-H747 cell growth in a cell viability assay.

NCI-H82 = system: NCI-H82;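 further: growth inhibition of NCI-H82 cells, measured with a cell viability readout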
Description: SANGER: Inhibition of human NCI-H82 cell growth in a cell viability assay.

SNU1 = system: SNU1;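 further: growth inhibition of human NCI-SNU-1 cells, measured with a cell viability assay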
Description: SANGER: Inhibition of human NCI-SNU-1 cell growth in a cell viability assay.

SNU-5 = system: SNU-5;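 further: cell viability readout used to measure growth inhibition in human NCI-SNU-5 cells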
Description: SANGER: Inhibition of human NCI-SNU-5 cell growth in a cell viability assay.

OCUB-M = system: OCUB-M;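 further: growth inhibition of the cancer cell line, read out through a cell viability assay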
Description: SANGER: Inhibition of human OCUB-M cell growth in a cell viability assay.

OS-RC-2 = system: OS-RC-2;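 further: growth inhibition of human OS-RC-2 cells, measured by a cell viability assay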
Description: SANGER: Inhibition of human OS-RC-2 cell growth in a cell viability assay.

SF-539 = system: SF-539;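 further: Read-out is a cell viability assay, with IC50 reflecting inhibition of cell growth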
Description: SANGER: Inhibition of human SF539 cell growth in a cell viability assay.

SK-NEP-1 = system: SK-NEP-1;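 further: growth inhibition of human SK-NEP-1 cells, read out by a cell viability assay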
Description: SANGER: Inhibition of human SK-NEP-1 cell growth in a cell viability assay.

SK-UT-1 = system: SK-UT-1;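 further: growth inhibition of SK-UT-1 cells, measured by a cell viability assay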
Description: SANGER: Inhibition of human SK-UT-1 cell growth in a cell viability assay.

8-MG-BA = system: 8-MG-BA
Description: SANGER: Inhibition of human 8-MG-BA cell growth in a cell viability assay.

A3-KAW = system: A3-KAW
Description: SANGER: Inhibition of human A3-KAW cell growth in a cell viability assay.

ALL-PO = system: ALL-PO
Description: SANGER: Inhibition of human ALL-PO cell growth in a cell viability assay.

AM-38 = system: AM-38
Description: SANGER: Inhibition of human AM-38 cell growth in a cell viability assay.

BT-474 = system: BT-474
Description: SANGER: Inhibition of human BT-474 cell growth in a cell viability assay.

BV-173 = system: BV-173
Description: SANGER: Inhibition of human BV-173 cell growth in a cell viability assay.

Becker = system: Becker
Description: SANGER: Inhibition of human Becker cell growth in a cell viability assay.

C8166 = system: C8166
Description: SANGER: Inhibition of human C8166 cell growth in a cell viability assay.

TE-5 = system: TE-5
Description: SANGER: Inhibition of human TE-5 cell growth in a cell viability assay.

TE-9 = system: TE-9
Description: SANGER: Inhibition of human TE-9 cell growth in a cell viability assay.

U-266 = system: U-266
Description: SANGER: Inhibition of human U-266 cell growth in a cell viability assay.

VA-ES-BJ = system: VA-ES-BJ
Description: SANGER: Inhibition of human VA-ES-BJ cell growth in a cell viability assay.

no-10 = system: no-10
Description: SANGER: Inhibition of human no-10 cell growth in a cell viability assay.

SCC-15 = system: SCC-15
Description: SANGER: Inhibition of human SCC-15 cell growth in a cell viability assay.

Measured: IC50

CCn1c(-c2nonc2N)nc2cnc(Oc3cccc(NC(=O)c4ccc(OCCN5CCOCC5)cc4)c3)cc21 [GSK-269962A]
1260 nM: MPP-89
4.6 nM: KS-1
668 nM: no-10
1290 nM: SF-539
2460 nM: EM-2
66.9 nM: MHH-NB-11
85.1 nM: D-263MG
819 nM: ES8
2310 nM: NB13
138 nM: NB10
49.5 nM: GI-ME-N
not listed: SCC-15
> 2500 nM: all other assays above

Cc1ccc(NC(=O)c2cccc(C(C)(C)C#N)c2)cc1Nc1ccc2ncn(C)c(=O)c2c1
1290 nM: GI-ME-N
472 nM: SK-NEP-1
1350 nM: ALL-PO
116 nM: KMOE-2
1660 nM: LB373-MEL-D
154 nM: HL-60
134 nM: K5
673 nM: NCI-H1648
506 nM: NCI-H747
3950 nM: MSTO-211H
448 nM: SNU1
2810 nM: SNU-5
204 nM: IST-MEL1
692 nM: BV-173
393 nM: KS-1
196 nM: EM-2
not listed: GAK
> 4000 nM: all other assays above
